Results taken from article PMC12879253 (Molecular pharmaceutics, 2025).

How the values were obtained:
[1] = tested on: NCI/ADR-RES drug resistant ovarian cancer xenografts; assay: Efficacy in NCI/ADR-RES xenografts; assay type: in vivo, mouse; conditions: doxorubicin 2.0 mg/kg iv, terminated after the third dose
[2] = tested on: NCI/ADR-RES ovarian cancer cell; conditions: overexpresses p-gp; cited from earlier work
[3] = aqueous buffer; cited from earlier work

SMILES | body weight loss [1] | effectiveness in drug-resistant cells [2] | half-life of hydrolysis to dox [3] [min]
COc1cccc2c1C(=O)c1c(O)c3c(c(O)c1C2=O)C[C@@](O)(C(=O)CO)C[C@@H]3O[C@H]1C[C@H](N)[C@H](O)[C@H](C)O1 [dox, Doxorubicin] | more than 20% | not effective | –
CC(=O)O[C@H]1C(=O)[C@@]2(C)[C@H]([C@H](OC(=O)c3ccccc3)[C@]3(O)C[C@H](OC(=O)[C@H](O)[C@@H](NC(=O)c4ccccc4)c4ccccc4)C(C)=C1C3(C)C)[C@]1(OC(C)=O)CO[C@@H]1C[C@@H]2O [paclitaxel] | – | not effective | –
COc1cccc2c1C(=O)c1c(O)c3c(c(O)c1C2=O)C[C@@](O)(C(=O)CO)C[C@@H]3O[C@H]1C[C@@H]2NCO[C@@H]2[C@H](C)O1 [doxaz, Doxazolidine] | – | effective | 3
